Laboratory results as given in US8153593B2, “Transglutaminase inhibitors and methods of use thereof” (The Board of Trustees of the Leland Stanford Junior …, priority 2003, dated 2012).

What was measured:
tumor associated TG2 = molecular target: T1, tumor associated TG2 (Mus musculus, UniProt P21981); assay: Intracranial DBT tumor associated TG2 activity after dosing; assay type: in vivo, mice
T1 construct: from tissue; host or cells: intracranial DBT glioblastoma tumours from dosed mice
T1 sequence (P21981 1-686): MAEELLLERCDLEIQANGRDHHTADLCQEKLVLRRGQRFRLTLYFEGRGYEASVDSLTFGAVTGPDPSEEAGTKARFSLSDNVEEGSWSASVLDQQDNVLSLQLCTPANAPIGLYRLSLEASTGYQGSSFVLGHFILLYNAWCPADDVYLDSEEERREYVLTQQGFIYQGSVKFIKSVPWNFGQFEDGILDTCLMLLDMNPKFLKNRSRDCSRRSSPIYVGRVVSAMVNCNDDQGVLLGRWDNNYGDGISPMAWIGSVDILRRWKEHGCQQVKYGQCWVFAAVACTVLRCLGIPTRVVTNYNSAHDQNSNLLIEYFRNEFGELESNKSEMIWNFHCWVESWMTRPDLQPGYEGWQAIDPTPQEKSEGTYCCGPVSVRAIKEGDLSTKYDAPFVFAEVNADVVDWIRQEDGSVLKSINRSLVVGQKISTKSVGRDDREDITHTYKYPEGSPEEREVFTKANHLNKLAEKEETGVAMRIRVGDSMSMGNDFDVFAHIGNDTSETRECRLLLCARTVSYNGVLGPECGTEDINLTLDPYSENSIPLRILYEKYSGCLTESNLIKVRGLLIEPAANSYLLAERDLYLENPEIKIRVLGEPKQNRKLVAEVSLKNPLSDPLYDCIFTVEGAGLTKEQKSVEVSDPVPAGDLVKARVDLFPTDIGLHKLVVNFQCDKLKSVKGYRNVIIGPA
Protocol: (§1) To test whether therapeutic doses of KCC009 can modulate TG2 activity associated with intracranial glioblastomas, DBT tumors were injected intracranially in mice. As judged by MRI, the mice consistently established intracranial tumors after 7-10 days following injections, which, if untreated, caused death by 2-3 weeks. In an initial dose-finding experiment, cohorts of mice were administered 4 daily doses of vehicle or KCC009 (12.5 mg/kg, 25 mg/kg and 50 mg/kg) starting on day 11 after intra-cranial injections. Twenty-four hours later, the mice were sacrificed and tumors analyzed. […] Based on these findings a dose of 35 mg/kg was used for subsequent experiments in mice harboring intracranial DBT tumors.
As summarized in Table 4, KCC009 treatment led to significant suppression of TG2 activity after 15 min, whereas enzyme activity recovers fully by 24 h. Both uninhibited and inhibited activity levels are consistent with similar measurements in the small intestinal mucosa (data not shown).

[1] = test system: IOMM-Lee meningioma cells; assay: Meningioma cell sensitization to radiation, TG2-fibronectin Western blot; assay type: cell-based; details: 0.5 mM KCC009
Protocol: FIG. 4: Top left: control IOMM meningioma cells; Top right: IOMM cells exposed to 20 Gy radiation; Bottom left: IOMM cells exposed to 0.5 mM KCC009 and 20 Gy radiation.
FIG. 5: Western blot analysis of lysates from IOMM cells treated with KCC009 and/or BCNU. Lysates were immunoprecipitated with anti-fibronectin antibodies, and the Western blots were probed with anti-TG2 antibodies. Lanes (left to right): Control, KCC009 only, BCNU only, KCC009+BCNU. KCC009 and BCNU were used at concentrations of 0.5 mM and 6.25 μM, respectively. Disappearance of TG2 from lanes treated with KCC009 illustrates loss of association of TG2 with the extracellular matrix.
To verify the therapeutic utility of KCC009 against meningiomas, IOMM-Lee meningioma cells were treated with 20 Gy of radiation with and without KCC009. […] Similar data was also obtained when KCC009 was used in combination with BCNU.

intracranial DBT tumors = assay: Intracranial DBT glioblastoma dose-finding and chemosensitizer studies; assay type: in vivo, mice
Protocol: as §1
To evaluate the activity of KCC009 as a chemosensitizer, mice harboring DBT tumors were treated either with 10 mg/kg BCNU alone (2 mice) or BCNU+35 mg/kg KCC009 (3 mice). As before, 4 daily drug doses were administered intraperitoneally starting on day 11. Tumors were harvested for immuno-histological analysis 24 h after the last dose.

[2] = Preliminary pharmacokinetic and toxicity studies; details: mice

In the case of `O=C(N[C@@H](Cc1ccc(O)cc1)C(=O)NCC1CC(Br)=NO1)OCc1ccccc1` (stereo partly shown) [Compound 59], the “TG2 activity-BCNU + KCC009” value (tumor associated TG2; BCNU + 50 mg/kg KCC009, 15 min after last of four daily doses) was 1.2 ± 0.3 (n = 4) nmol/h/mg protein, the “TG2 activity-BCNU + KCC009” value (tumor associated TG2; BCNU + 50 mg/kg KCC009, 24 h after last of four daily doses) was 2.1 ± 0.2 (n = 3) nmol/h/mg protein and the sensitization to radiation ([1]; 20 Gy radiation) was “dramatically sensitized meningioma cells to radiation”. The “association between TG2 and fibronectin” value ([1]; fibronectin immunoprecipitate, anti-TG2 Western blot) was “loss of association between TG2 and fibronectin”, the “fibronectin staining of tumors” value (intracranial DBT tumors; 10 mg/kg BCNU + 35 mg/kg KCC009 i.p., 4 daily doses, versus BCNU alone) was “decrease in fibronectin staining overall and an apparent dramatic decrease in the extracellular matrix” and the “gross tumor size and brain swelling” value (intracranial DBT tumors; 12.5 mg/kg or 25 mg/kg, 4 daily doses from day 11) was “smaller tumors and reduced brain swelling”. For the same compound, the gross tumor (intracranial DBT tumors; 50 mg/kg, 4 daily doses from day 11, one mouse) was “did not have any gross tumor”, the oral bioavailability [2] was “reasonable oral bioavailability” and the serum half-life [2] was “short”. For the same compound, the toxicity [2] was “low toxicity”.
